Laboratory results published in ChEMBL document CHEMBL4725222, “Advances in the Development of Phosphodiesterase-4 Inhibitors” (J Med Chem, 2020).

Assays:
[1] = molecular target: Phosphodiesterase 4 (Homo sapiens, UniProt P27815+Q08499+Q07343+Q08493); test: Inhibition of human PDE4 expressed in Saccharomyces cerevisiae preincubated for 30 mins followed by cAMP substrate addition
[2] = tested on: Homo sapiens; test: Inhibition of early allergic response in atopic asthmatic patient assessed as reduction in minimum FEV1 level at 87.5 ug administered once daily via inhalation for 7 days followed by allergen challenge relative to placebo; type: functional; conditions: dose 87.5 µg; time 7 day
[3] = tested on: Homo sapiens; test: Inhibition of late allergic response in atopic asthmatic patient assessed as reduction in weighted mean FEV1 level at 87.5 ug administered once daily via inhalation for 7 days followed by allergen challenge relative to placebo; type: functional; conditions: dose 87.5 µg; time 7 day
[4] = tested on: Homo sapiens; test: Inhibition of early allergic response in atopic asthmatic patient assessed as reduction in weighted mean FEV1 level at 87.5 ug administered once daily via inhalation for 7 days followed by allergen challenge relative to placebo; type: functional; conditions: dose 87.5 µg; time 7 day
[5] = tested on: Homo sapiens; test: Inhibition of late allergic response in atopic asthmatic patient assessed as reduction in minimum FEV1 level at 87.5 ug administered once daily via inhalation for 7 days followed by allergen challenge relative to placebo; type: functional; conditions: dose 87.5 µg; time 7 day

- IC50 [1]: 3.2 pM
SMILES: COc1cccc(Nc2c(C(N)=O)cnc3c(C)cc(S(=O)(=O)c4cccc(C(=O)N(C)C)c4)cc23)c1 [GSK-256066]
- inhibition (INH) [2]: 40.9%
- inhibition (INH) [3]: 34.3%
- inhibition (INH) [4]: 57.2%
- inhibition (INH) [5]: 26.2%
